Measured values from patent US20180221352A1, “3-(1H-PYRROLO[2,3-C]PYRIDIN-2-YL)-1H-PYRAZOLO[3,4-B]PYRIDINES AND THERAPEUTIC USES THEREOF” (Samumed, LLC, priority 2015, published 2018).

Legend:
Type in all cases: cell-based
SW480 colon cancer cells = test: Cell viability assay (CellTiter-Blue); conditions: Homo sapiens; for EC50: 96 h, SW480 cell viability, four days; for inhibition at 10 µM: SW480, 96 h, read-out: percent inhibition at 10 μM
Protocol: Representative compounds were screened using the following assay procedure to assess the effect on cell viability as described below.
Approximately 2×10^3 SW480 colon cancer cells were seeded into each well and allowed to incubate in the presence or absence of compound for four days at 37° C./5% CO2. Eight replicates of DMSO-treated cells served as controls and cells treated with compound were performed in duplicate.
After incubation, 20 μL of CellTiter-Blue (Promega) was added to each well allowed to incubate for approximately 3 hours. This reagent was a buffered solution which contains resazurin, metabolically active cells were able to reduce rezarurin (blue) into resorufin (pink) which was highly fluorescent. This measured fluorescence was used as a readout for cell viability.

[1] = tested on: primary human fibroblasts derived from IPF patients (LL29 cells); test: Inhibition of fibrotic process, αSMA staining in TGF-β1 treated fibroblasts; conditions: Fibroblast; for EC50: 96 h, LL29 cells, TGF-β1 20 ng/mL, 4 days, % αSMA positive cells; for inhibition at 10 µM: read-out: percent inhibition at 10 μM
Protocol: Representative compounds were screened using primary human fibroblasts (derived from IPF patients) treated with TGF-β1 to determine their ability to inhibit the fibrotic process.
LL29 cells are plated at 1,500 cells/well in 80 μL/well F12 medium supplemented with 1% Fetal Bovine Serum. […] Wells treated with TGF-31 and containing DMSO were used as controls. […] Following incubation for 4 days, SYTOX green nucleic acid stain (Life Technologies [Thermo Fisher Scientific]) was added to the wells at a final concentration of 1 μM and incubated at room temperature for 30 min.

IL-6 = IL-6 inhibition in LPS-stimulated THP-1 cells (HTRF); conditions: Homo sapiens; for EC50: THP-1 cells, LPS 500 ng/mL, 22 hours, IL6 HTRF; for inhibition at 10 µM: THP-1, read-out: percent inhibition at 10 μM
Protocol: THP-1 cells were cultured in basal media with 1% FBS for 24 hours before the start of the assay. […] THP-1 cells were plated at 5000 cells/well in the 384-well plates and incubated at 37° C. for 2 h. 500 ng/mL of LPS was added after 2 hours and cells were incubated for another 22 hours at 37° C. Plates were spun in a centrifuge for 1 minute at […] and a mixture of anti-IL6 XL665, and anti-IL6 Cryptate diluted in reconstitution buffer (Cisbio Inc.) was added to each well. Following incubation for 3 hrs at room temperature, Homogeneous Time-Resolved Fluorescence (HTRF) was measured using the Envision (Perkin Elmer) at 665 nm and […]. The ratio of fluorescence at 665 nm to 620 nm was used as a readout for IL6 quantification. All samples were processed in duplicate. Readings were normalized to DMSO treated cells and normalized activities were utilized for EC50 calculations using the dose-response log (inhibitor) vs. response−variable slope (four parameters) nonlinear regression feature available in GraphPad Prism 5.0 (or Dotmatics).

[2] = tested on: Wnt activity (Sp5-Luc reporter, SW480 colon carcinoma cells); test: Wnt activity screening assay, Sp5-Luc reporter gene in SW480 cells; conditions: Homo sapiens; for EC50: Sp5-Luc reporter, SW480 cells, overnight incubation; for inhibition at 10 µM: SW480, read-out: percent inhibition at 10 μM
Excerpt: The screening assay for Wnt activity is described as follows. Reporter cell lines can be generated by stably transducing cancer cell lines (e.g., colon cancer) or primary cells (e.g., IEC-6 intestinal cells) with a lentiviral construct that includes a Wnt-responsive promoter driving expression of the firefly luciferase gene.
SW480 colon carcinoma cells were transduced with a lentiviral vector expressing luciferase with a human Sp5 promoter consisting of a sequence of eight TCF/LEF binding sites. SW480 cells stably expressing the Sp5-Luc reporter gene and a hygromycin resistance gene were selected by treatment with 150 μg/mL of hygromycin for 7 days. These stably transduced SW480 cells were expanded in cell culture and used for all further screening activities. […] For Sp5-Luc reporter gene assays, the cells were plated at 4,000 cells/well in 384-well plates with medium containing 1% fetal bovine serum and incubated overnight at 37° C. and 5% CO2. Following incubation, 20 μl of BrightGlo luminescence reagent (Promega) was added to each well of the 384-well assay plates. The plates were placed on an orbital shaker for 2 min and then luminescence was quantified using the Envision (Perkin Elmer) plate reader. Readings were normalized to DMSO only treated cells, and normalized activities were utilized for EC50 calculations using the dose-response log (inhibitor) vs. response−variable slope (four parameters) nonlinear regression feature available in GraphPad Prism 5.0 (or Dotmatics).

EC50 (SW480 colon cancer cells) [µM]	EC50 (IL-6) [µM]	EC50 [2] [µM]	Structure (SMILES)	EC50 [1] [µM]	inhibition at 10 µM [1] [%]	inhibition at 10 µM (IL-6) [%]	inhibition at 10 µM [2] [%]	inhibition at 10 µM (SW480 colon cancer cells) [%]
4.09	6.43	9.12	O=C(Nc1cncc(-c2cnc3[nH]nc(-c4cc5c(N6CCCCC6)cncc5[nH]4)c3c2)c1)C1CCCCC1 [Compound 191, N-(5-(3-(4-(Piperidin-1-yl)-1H-pyrrolo[2,3-c]pyridin-2-yl)-1H-pyrazolo[3,4-b]pyridin-5-yl)pyridin-3-yl)cyclohexanecarboxamide]	5.63				
3.32	1.55	9.34	CCNCc1cncc(-c2cnc3[nH]nc(-c4cc5ccncc5[nH]4)c3c2)c1 [Compound 258, N-((5-(3-(1H-Pyrrolo[2,3-c]pyridin-2-yl)-1H-pyrazolo[3,4-b]pyridin-5-yl)pyridin-3-yl)methyl)ethanamine]	7.43				
1.15	3.75	3.87	c1ccc(-c2cnc3[nH]nc(-c4cc5ccncc5[nH]4)c3c2)nc1 [Compound 280, 5-(Pyridin-2-yl)-3-(1H-pyrrolo[2,3-c]pyridin-2-yl)-1H-pyrazolo[3,4-b]pyridine]	1.59				
9.97	2.08	3.62	CC(C)C(=O)Nc1cncc(-c2cnc3[nH]nc(-c4cc5c(-c6ccoc6)cncc5[nH]4)c3c2)c1 [Compound 317, N-(5-(3-(4-(Furan-3-yl)-1H-pyrrolo[2,3-c]pyridin-2-yl)-1H-pyrazolo[3,4-b]pyridin-5-yl)pyridin-3-yl)isobutyramide]	1.69				
6.29	> 10	> 10	CN(C)Cc1cncc(-c2cnc3[nH]nc(-c4cc5c(-c6ccoc6)cncc5[nH]4)c3c2)c1 [Compound 321, 1-(5-(3-(4-(Furan-3-yl)-1H-pyrrolo[2,3-c]pyridin-2-yl)-1H-pyrazolo[3,4-b]pyridin-5-yl)pyridin-3-yl)-N,N-dimethylmethanamine]	> 10	41.1	29.2	15.4	
7	0.437	3.73	CC(C)(C)CC(=O)Nc1cncc(-c2cnc3[nH]nc(-c4cc5c(-c6ccoc6)cncc5[nH]4)c3c2)c1 [Compound 324, N-(5-(3-(4-(Furan-3-yl)-1H-pyrrolo[2,3-c]pyridin-2-yl)-1H-pyrazolo[3,4-b]pyridin-5-yl)pyridin-3-yl)-3,3-dimethylbutanamide]	0.874				
> 10	2.52	> 10	c1ncc(-c2cnc3[nH]nc(-c4cc5c(-c6ccoc6)cncc5[nH]4)c3c2)cn1 [Compound 335, 3-(4-(Furan-3-yl)-1H-pyrrolo[2,3-c]pyridin-2-yl)-5-(pyrimidin-5-yl)-1H-pyrazolo[3,4-b]pyridine]	4.77			24.9	47
> 10	0.325	> 10	CS(=O)(=O)NCc1cc(F)cc(-c2cncc3[nH]c(-c4n[nH]c5ncc(-c6cncc(CN7CCCC7)c6)cc45)cc23)c1 [Compound 490, N-(3-Fluoro-5-(2-(5-(5-(pyrrolidin-1-ylmethyl)pyridin-3-yl)-1H-pyrazolo [3,4-b]pyridin-3-yl)-1H-pyrrolo[2,3-c]pyridin-4-yl)benzyl)methanesulfonamide]	> 10	16.2		24	9.7
> 10	> 10	> 10	CS(=O)(=O)NCc1cc(F)cc(-c2cncc3[nH]c(-c4n[nH]c5ncc(-c6cncc(NC(=O)C7CCCCC7)c6)cc45)cc23)c1 [Compound 499, N-(5-(3-(4-(3-Fluoro-5-(methylsulfonamidomethyl)phenyl)-1H-pyrrolo[2,3-c]pyridin-2-yl)-1H-pyrazolo[3,4-b]pyridin-5-yl)pyridin-3-yl)cyclohexanecarboxamide]	> 10	28.5	32.4	12.3	9.9
> 10	4.09	> 10	Fc1cccc(-c2cncc3[nH]c(-c4n[nH]c5ncc(C6CCNCC6)cc45)cc23)c1 [Compound 505, 3-(4-(3-Fluorophenyl)-1H-pyrrolo[2,3-c]pyridin-2-yl)-5-(piperidin-4-yl)-1H-pyrazolo[3,4-b]pyridine]	> 10	0		17.5	7
2.6	> 10	7.28	Fc1ccc(-c2cncc3[nH]c(-c4n[nH]c5ncc(-c6cncc(OC7CCCCC7)c6)cc45)cc23)cc1 [Compound 527, 5-(5-(Cyclohexyloxy)pyridin-3-yl)-3-(4-(4-fluorophenyl)-1H-pyrrolo[2,3-c]pyridin-2-yl)-1H-pyrazolo[3,4-b]pyridine]	4.35		21.7		
> 10	> 10	> 10	O=C(CC1CCNCC1)Nc1cncc(-c2cnc3[nH]nc(-c4cc5c(-c6cccnc6)cncc5[nH]4)c3c2)c1 [Compound 561, 2-(Piperidin-4-yl)-N-(5-(3-(4-(pyridin-3-yl)-1H-pyrrolo[2,3-c]pyridin-2-yl)-1H-pyrazolo[3,4-b]pyridin-5-yl)pyridin-3-yl)acetamide]	2.2		14.5	0	4.4
> 10	0.199	1.16	Cn1cc(-c2cnc3[nH]nc(-c4cc5c(-c6cc(F)cc(CNS(C)(=O)=O)c6)cncc5[nH]4)c3c2)cn1 [Compound 764, N-(3-Fluoro-5-(2-(5-(1-methyl-1H-pyrazol-4-yl)-1H-pyrazolo[3,4-b]pyridin-3-yl)-1H-pyrrolo[2,3-c]pyridin-4-yl)benzyl)methanesulfonamide]	1.04				0
